Bridge positions count the residues as written; N and C are the ends. Ends that are not written are not given here. I, II: the chains in the order shown.
Tests used:
R+ cells = assay: BrdU proliferation assay of transfected R+ cells; format: cell-based, mouse; details: 10 nM IGF-1 for 24 h; BrdU for last 6 h
Procedure: R^+ cells (described in 2.4) were seeded into 96-well plates so that they reached ∼50 % confluency after overnight incubation. […] Three hours post transfection, Opti-MEM medium was exchanged for regular culture medium. 24 h post transfection, cells were washed once with PBS and starved in serum free culture medium. After 24 h of starvation, cells were stimulated with IGF-1 (diluted in serum free medium) to reach final concentration of 10 nM IGF-1 per well for another 24 h period (serum free medium only was added to the non-stimulated wells). To determine the rate of proliferation in each well, BrdU Cell Proliferation Assay (Sigma–Aldrich, #QIA58) was used. Manufacturer's instructions were followed, with the BrdU probe being added for the last 6 h of the 24 h stimulation with IGF-1. Absorbance at dual wavelengths of 450–540 nm was measured using a spectrophotometric plate reader. The experiment was repeated at least three times and for each biological replicate, results were expressed as relative change compared to non-stimulated cells transfected with empty vector. Statistical analysis was performed using paired two-tailed Student's t-test.

IGF1R gene expression = IGF1R gene expression (RT-qPCR) in R+ cells after repeated stimulation with synthetic ligand; format: cell-based, human; details: 100 nM ligand every 3 h over 24 h, normalised to β-actin, compared to basal, n = 3
Procedure: To assess the potential impact of external VILP exposure on IGF1R gene expression, we employed R^+ cells, seeding 30 × 10^4 cells per well. Following a 24-hour incubation period, cells were washed twice with PBS and were subsequently serum-starved for 4 h before sequential stimulation with various ligands (scMFRV-VILP, dcMFRV-VILP, and IGF-1). The cells were stimulated with 100 nM of each ligand every 3 h over a 24-hour period. Post the final stimulation, the cells were snap-frozen and stored at −80 °C.
Subsequently, the lysates were transferred to microtubes and chloroform in ratio 5:1 (Tri Reagent: chloroform) was added. The mixture was vortexed for 15s, incubated at RT for 5 min and centrifuged for 15 min at 12000g, 4 °C. The upper aqueus phase was transferred to new tubes, 100 % ethanol was added to give a 1:1 volumetric ratio and subsequently the Direct-zol RNA Miniprep Kit (Zymo Research) was used according to the manufacturer's instructions. cDNA synthesis was performed using Maxima™ H Minus cDNA Syntheis Master Mix (ThermoFisher Scientific) according to manufacturer's instructions. The qPCR was performed using Power SYBR® Green PCR Master Mix (Applied Biosystems) according to manufacturer's instructions on QuantStudio 3 (Applied Biosystems). Statistical analysis was performed using ordinary one-way ANOVA followed by Tukey's multiple comparison test.

C57BL/6 J mice = assay: Insulin tolerance test; format: in vivo, mouse
Procedure: All animal studies presented in this study complied with the regulations and ethics guidelines of the NIH and were approved by the Boston College Institutional Animal Care and Use Committee. Insulin tolerance testing was performed on 12 to 17-week-old male C57BL/6 J mice (Jackson Laboratory). Mice were grouped according to their weight before experiment. After 6-hour starvation, mice were injected i.p. with insulin (Humulin, 6 nmol/kg, corresponds to 1.0 U/kg, 1x) (Eli Lilly), scMFRV-VILP (6 nmol/kg, 1x and 60 nmol/kg, 10x), dcMFRV-VILP (60 nmol/kg, 10x), dcLCDV-Sa-VILP (0.3 μmol/kg, 50x), and saline as a control (n = 4–11 per condition). Tail-vein blood glucose was measured until 3 h post-injection using an Infinity glucometer (US Diagnostic Inc.). Statistical analysis was done using Mixed effects analysis - Dunnett's multiple comparisons test.

human IGF1R [1] = molecular target: T1, human IGF1R (Homo sapiens, UniProt P08069); assay: cell-based; design: expressed in transfected cells; host or cells: HEK293 cells overexpressing human IGF-1R
Procedure: (§1) Insulin or IGF-1 receptor phosphorylation was measured as described in [13]. Briefly, HEK293 cells overexpressing human IR-A, IR-B, or IGF-1R were plated in 96-well tissue culture plates and cultured for 16–20 h at 37 °C, 5 % CO2, and 90 % humidity. […] For antagonism studies, test peptides were pre-mixed with 10 nM IGF-1. After 15 min incubation at 37 °C in humidified atmosphere with 5 % CO2, the cells were fixed with 5 % paraformaldehyde for 20 min at room temperature, washed twice with PBS (pH 7.4) and blocked with 2 % BSA in PBS for 1 h. The plate was washed three times, filled with anti-phospho-IR/IGF1R (Tyr1158) antibody (Millipore) and incubated for 3 h at room temperature, after which the plate was washed four times and filled with goat anti-rabbit secondary antibody (#A16110, ThermoFisher). Following 30 min incubation and another four washes, 0.1 mL of TMB One Solution substrate (#00-2023; Invitrogen) was added to each well. Color development was stopped 10 min later by adding 0.05 mL 1 M HCl.
Target sequence in this assay (P08069 741-1367): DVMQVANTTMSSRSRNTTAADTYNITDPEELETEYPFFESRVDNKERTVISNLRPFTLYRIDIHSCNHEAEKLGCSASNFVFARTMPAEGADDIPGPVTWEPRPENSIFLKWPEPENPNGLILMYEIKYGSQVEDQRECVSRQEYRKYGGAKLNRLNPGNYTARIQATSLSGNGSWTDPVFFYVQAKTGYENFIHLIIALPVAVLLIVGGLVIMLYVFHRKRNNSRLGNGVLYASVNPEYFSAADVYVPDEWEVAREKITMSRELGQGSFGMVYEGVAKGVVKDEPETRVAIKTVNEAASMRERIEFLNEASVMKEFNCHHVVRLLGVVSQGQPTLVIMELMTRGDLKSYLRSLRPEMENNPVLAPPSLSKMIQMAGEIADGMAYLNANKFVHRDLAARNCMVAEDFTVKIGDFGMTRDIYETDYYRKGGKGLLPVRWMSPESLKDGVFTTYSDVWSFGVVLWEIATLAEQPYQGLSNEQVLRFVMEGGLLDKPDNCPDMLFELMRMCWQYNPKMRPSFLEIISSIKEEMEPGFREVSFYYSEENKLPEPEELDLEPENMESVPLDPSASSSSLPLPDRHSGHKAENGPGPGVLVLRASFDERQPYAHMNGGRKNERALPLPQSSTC
Target sequence in this assay (P08069 31-736): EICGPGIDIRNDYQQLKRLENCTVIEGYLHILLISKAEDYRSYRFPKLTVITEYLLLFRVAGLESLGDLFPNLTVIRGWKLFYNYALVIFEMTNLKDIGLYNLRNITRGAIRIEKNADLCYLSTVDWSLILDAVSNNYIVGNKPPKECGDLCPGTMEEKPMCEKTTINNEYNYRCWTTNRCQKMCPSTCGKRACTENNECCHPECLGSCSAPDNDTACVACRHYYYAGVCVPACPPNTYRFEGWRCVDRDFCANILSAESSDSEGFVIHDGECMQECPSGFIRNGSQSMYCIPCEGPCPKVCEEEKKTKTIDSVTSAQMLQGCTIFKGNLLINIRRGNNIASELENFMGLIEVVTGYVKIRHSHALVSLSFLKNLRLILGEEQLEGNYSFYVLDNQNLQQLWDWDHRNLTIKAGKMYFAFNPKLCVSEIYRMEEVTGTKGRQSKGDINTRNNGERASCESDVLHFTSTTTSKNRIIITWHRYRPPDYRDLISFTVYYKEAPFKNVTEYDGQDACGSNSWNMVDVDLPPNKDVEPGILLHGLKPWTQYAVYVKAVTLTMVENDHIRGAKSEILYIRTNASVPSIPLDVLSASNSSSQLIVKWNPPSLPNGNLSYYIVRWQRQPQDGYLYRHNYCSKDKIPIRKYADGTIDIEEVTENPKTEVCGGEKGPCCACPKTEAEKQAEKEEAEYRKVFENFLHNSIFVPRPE

human IR-A [2] = molecular target: T2, human IR-A (Homo sapiens, UniProt P06213); assay: Whole-cell binding competition assay with 125I-insulin on IM-9 lymphoblasts; design: human IM-9 lymphoblasts, that express IR-A exclusively; host or cells: human IM-9 lymphoblasts (whole cells)
T2 sequence (P06213 763-1382): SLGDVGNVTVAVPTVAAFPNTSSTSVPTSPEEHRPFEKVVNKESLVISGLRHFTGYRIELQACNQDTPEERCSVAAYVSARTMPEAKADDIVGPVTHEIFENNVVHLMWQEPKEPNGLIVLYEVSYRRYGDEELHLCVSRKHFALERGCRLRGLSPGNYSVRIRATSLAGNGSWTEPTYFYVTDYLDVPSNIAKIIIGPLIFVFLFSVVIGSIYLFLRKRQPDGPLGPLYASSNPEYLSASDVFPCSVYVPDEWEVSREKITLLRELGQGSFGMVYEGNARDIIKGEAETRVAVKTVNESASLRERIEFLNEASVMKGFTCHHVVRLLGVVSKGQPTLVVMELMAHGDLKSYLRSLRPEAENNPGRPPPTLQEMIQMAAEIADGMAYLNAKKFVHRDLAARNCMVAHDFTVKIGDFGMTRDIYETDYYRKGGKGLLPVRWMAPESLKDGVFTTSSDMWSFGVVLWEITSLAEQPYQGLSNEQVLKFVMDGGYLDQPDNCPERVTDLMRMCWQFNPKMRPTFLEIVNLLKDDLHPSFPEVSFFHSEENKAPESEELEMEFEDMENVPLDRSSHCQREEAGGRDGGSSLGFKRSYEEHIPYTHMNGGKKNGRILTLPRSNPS
T2 sequence (P06213 other isoform, or with tags, fused parts or gaps): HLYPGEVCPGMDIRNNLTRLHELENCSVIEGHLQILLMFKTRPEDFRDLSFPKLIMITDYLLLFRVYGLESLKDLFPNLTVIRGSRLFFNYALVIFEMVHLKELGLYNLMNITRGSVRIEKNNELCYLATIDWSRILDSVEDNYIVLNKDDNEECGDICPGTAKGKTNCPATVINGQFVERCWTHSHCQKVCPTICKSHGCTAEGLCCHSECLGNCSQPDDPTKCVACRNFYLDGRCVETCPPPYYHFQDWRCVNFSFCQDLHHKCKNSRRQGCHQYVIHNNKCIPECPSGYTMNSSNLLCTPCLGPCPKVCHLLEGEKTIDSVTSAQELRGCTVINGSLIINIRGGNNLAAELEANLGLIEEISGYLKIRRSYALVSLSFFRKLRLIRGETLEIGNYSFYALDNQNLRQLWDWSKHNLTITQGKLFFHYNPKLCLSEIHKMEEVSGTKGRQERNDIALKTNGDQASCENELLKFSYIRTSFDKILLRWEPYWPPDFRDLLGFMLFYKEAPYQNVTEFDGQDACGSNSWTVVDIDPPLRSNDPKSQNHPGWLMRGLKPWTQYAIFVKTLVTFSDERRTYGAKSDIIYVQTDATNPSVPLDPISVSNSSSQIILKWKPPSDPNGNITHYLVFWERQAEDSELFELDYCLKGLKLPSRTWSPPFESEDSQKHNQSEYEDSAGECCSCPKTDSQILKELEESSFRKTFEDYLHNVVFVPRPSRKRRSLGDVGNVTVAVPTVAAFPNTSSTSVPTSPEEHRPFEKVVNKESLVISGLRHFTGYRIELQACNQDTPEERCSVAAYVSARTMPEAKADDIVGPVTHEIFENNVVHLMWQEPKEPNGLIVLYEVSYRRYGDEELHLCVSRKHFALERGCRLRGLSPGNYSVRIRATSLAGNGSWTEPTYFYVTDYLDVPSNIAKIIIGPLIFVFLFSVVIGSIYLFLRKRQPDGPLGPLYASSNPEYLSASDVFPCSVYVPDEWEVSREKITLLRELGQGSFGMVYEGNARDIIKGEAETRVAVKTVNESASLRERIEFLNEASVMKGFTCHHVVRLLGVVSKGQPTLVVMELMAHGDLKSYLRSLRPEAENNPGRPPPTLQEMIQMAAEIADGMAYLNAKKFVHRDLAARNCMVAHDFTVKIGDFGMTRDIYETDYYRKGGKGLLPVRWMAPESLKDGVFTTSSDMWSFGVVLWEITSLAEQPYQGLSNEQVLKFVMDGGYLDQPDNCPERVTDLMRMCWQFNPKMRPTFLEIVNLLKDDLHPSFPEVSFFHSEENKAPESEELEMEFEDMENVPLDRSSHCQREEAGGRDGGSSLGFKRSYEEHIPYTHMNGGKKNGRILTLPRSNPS
Procedure: (§2) For receptor binding studies, human IM-9 lymphoblasts, that express IR-A exclusively, and R^−/IR-B and R^+ murine embryonic fibroblasts were used for a whole-cell receptor-binding assay. Receptor binding assays on IR-A were perfomed accoding to Morcavallo et al. [24]and binding assays on IR-B and IGF1R were performed according to Kosinova et al.. […] Human ^125I-insulin was prepared as described by Asai et al. and human ^125I-IGF-1 was prepared as described in Kertisova et al..

human IR-A [3] = molecular target: T2, human IR-A; assay: cell-based; design: human IM-9 lymphoblasts, that express IR-A exclusively
Procedure: as §1

human IGF1R [4] = molecular target: T1, human IGF1R; assay: Whole-cell binding competition assay with 125I-IGF-1 on R+ fibroblasts; design: expressed in transfected cells; host or cells: murine embryonic fibroblasts from IGF1R knockout mice, stably transfected with IGF1R (R+ cells); details: competition with 125I-IGF-1, R+ cells; mean ± S.D. (n), n ≥ 3; measurement series #; SD
Procedure: as §2
Target sequence in this assay (P08069 31-736): as the sequence (P08069 31-736) above
Target sequence in this assay (P08069 741-1367): as the sequence (P08069 741-1367) above

human IR-B = molecular target: T3, human IR-B (Homo sapiens, UniProt P06213); assay: Whole-cell binding competition assay with 125I-insulin on R-/IR-B fibroblasts; details: competition with 125I-insulin, R-/IR-B cells; mean ± S.D. (n), n ≥ 3; measurement series #; SD
T3 construct: expressed in transfected cells; host or cells: murine embryonic fibroblasts from IGF1R knockout mice, stably transfected with IR-B (R-/IR-B cells)
T3 sequence (P06213 28-758 limits assumed): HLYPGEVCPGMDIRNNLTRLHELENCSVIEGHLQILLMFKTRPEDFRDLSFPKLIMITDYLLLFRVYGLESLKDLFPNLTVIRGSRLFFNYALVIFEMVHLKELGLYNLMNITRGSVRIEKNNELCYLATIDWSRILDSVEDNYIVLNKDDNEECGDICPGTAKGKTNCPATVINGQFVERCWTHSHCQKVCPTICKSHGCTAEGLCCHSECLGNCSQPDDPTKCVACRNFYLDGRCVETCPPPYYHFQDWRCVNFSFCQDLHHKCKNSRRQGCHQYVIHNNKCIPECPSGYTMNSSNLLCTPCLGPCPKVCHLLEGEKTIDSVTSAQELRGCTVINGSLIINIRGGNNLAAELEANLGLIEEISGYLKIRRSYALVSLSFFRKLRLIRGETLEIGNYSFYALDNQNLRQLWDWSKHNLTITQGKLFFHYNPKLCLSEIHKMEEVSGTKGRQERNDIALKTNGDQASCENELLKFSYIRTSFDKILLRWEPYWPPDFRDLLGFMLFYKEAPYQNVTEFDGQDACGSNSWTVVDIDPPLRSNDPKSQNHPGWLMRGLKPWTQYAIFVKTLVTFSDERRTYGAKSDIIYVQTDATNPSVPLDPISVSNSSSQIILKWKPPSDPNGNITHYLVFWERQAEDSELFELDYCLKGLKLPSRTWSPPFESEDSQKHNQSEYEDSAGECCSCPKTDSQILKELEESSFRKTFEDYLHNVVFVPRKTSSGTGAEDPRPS
T3 sequence (P06213 763-1382 limits assumed): as the sequence (P06213 763-1382) above
Procedure: as §2

IR-B = assay: Insulin/IGF signaling via IR-B in R-/IR-B cells (western blot); format: cell-based, human; details: 0.1-500 nM, 30 min
Procedure: For receptor phosphorylation and downstream signaling experiments, R^−/IR-A, R^−/IR-B and R^+ cells (described in 2.4) were used to explore signaling properties of ligands via specific receptors. Cells were seeded into 24-well plates (10^5 cells per well) in 300 μl of culture medium (described above) and grown overnight. Afterwards, cells were washed twice with PBS and starved in serum-free culture medium for 4 h. After the starvation, cells were washed with pure DMEM medium and incubated with ligand diluted in pure DMEM medium (0, 0.1, 1, 10, 100, 250 and 500 nM) in 37 °C for 30 min. For co-incubation of a VILP with 10 nM insulin/IGF-1, increasing concentrations of the VILP were pre-mixed with insulin or IGF-1 prior stimulation of cells. The reaction was terminated by washing the cells with ice-cold PBS (HyClone) followed by snap freezing in liquid nitrogene. […] Protein concentration in each sample was evaluated using BCA Assay (Thermo Fisher Scientific). Samples were further diluted using sample buffer for SDS-PAGE (final concentration 62.5 mM Tris, 2 % SDS (w/v), 10 % glycerol (v/v). 0.01 % bromphenol blue (w/v), 0.1 M DTT (w/v), pH 6.8 (HCl)) and routinely analyzed using SDS-PAGE and immunoblotting. […] Western blots were quantified using Image Lab 6.0.1 (Bio-Rad). […]

## Human IGF-1: human insulin like growth factor-1, supplied by Merck [reference compound]
R+ cells
  increase in cell proliferation in cells transfected with empty vector: 2.2 fold
IGF1R gene expression
  decrease of IGF-1R gene expression: neither dcMFRV-VILP nor IGF-1 demonstrated a similar effect

## Human insulin: human insulin, supplied by Merck; Humulin (Eli Lilly) in the insulin tolerance test [reference compound]
C57BL/6 J mice; 6 nmol/kg (1x) i.p., male C57BL/6 J mice, 6 h starved
  maximum decrease in blood glucose levels: ~60%

## I: ILAQTLCGSELVDALELVCGEYGGIYRPPK / II: KIVDVCCTTKGCNYMDLKQYCN (disulfide I:7-II:7, I:19-II:21, II:6-II:12) [dcLCDV-Sa]
Human IGF1R [1]
  EC50: 282 nM
Human IR-A [2]; competition with 125I-insulin, IM-9 cells, mean ± S.D. (n), n ≥ 3 binding curves each in duplicate, measurement series #, SD
  Kd: 487 ± 287 nM
Human IR-A [3]
  EC50: 198 nM
Human IGF1R [4]
  Kd: 639 ± 453 nM
Human IR-B
  Kd: 994 ± 55 nM

## I: VLTDKLCGKDLVDALLLVCGEKGVYSPKMG / II: GIADVCCTSANGCDLNFLEKFCKT (disulfide I:7-II:7, I:19-II:22, II:6-II:13) [dcMFRV]
Human IR-A [2]; ratio of Kd values
  affinity on IR-A, fold stronger than IGF-1: 1.5 fold
  fold difference in IR-A affinity, dcMFRV-VILP higher than the sc form: about 3 fold
C57BL/6 J mice; 60 nmol/kg (10x) i.p., dcMFRV-VILP
  glucose-lowering effect: comparable effect to scMFRV-VILP (1x)
IGF1R gene expression
  decrease of IGF-1R gene expression: neither dcMFRV-VILP nor IGF-1 demonstrated a similar effect
IR-B
  maximum response of IR-B autophosphorylation compared to 10 nM insulin: comparable maximum response

Reference: publication PMC10831276, “A viral insulin-like peptide inhibits IGF-1 receptor phosphorylation and regulates IGF1R gene expression” (Molecular Metabolism, 2024)
